# Test results as given in patent publication US20100160226A1, “Y-RECEPTOR AGONISTS” (7TM PHARMA A/S, priority 2007, published 2010).
# Target: T1, human Y1 receptor (Homo sapiens, UniProt P25929)
# T1 construct: expressed in transfected cells; host or cells: COS-7
# T1 sequence (P25929 1-384): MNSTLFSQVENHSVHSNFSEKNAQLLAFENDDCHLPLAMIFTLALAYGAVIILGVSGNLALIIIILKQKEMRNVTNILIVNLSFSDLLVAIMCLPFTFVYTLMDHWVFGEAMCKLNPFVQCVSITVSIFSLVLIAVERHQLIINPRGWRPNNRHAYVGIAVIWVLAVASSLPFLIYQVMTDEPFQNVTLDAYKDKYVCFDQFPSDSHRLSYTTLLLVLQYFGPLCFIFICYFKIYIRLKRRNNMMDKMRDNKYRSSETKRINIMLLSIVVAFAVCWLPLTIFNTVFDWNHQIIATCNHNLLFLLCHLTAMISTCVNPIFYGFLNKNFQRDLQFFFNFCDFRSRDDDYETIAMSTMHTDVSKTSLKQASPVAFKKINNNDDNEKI
# Assay: Human Y1 receptor potency assay (inositol phosphate turnover)
# Assay type: cell-based
# Conditions: COS-7 cells transfected with human Y1 receptor and Gqi5, read-out: hY1 EC50
# Protocol: Potency of the test compounds on the human Y2 receptor is determined by performing dose-response experiments in COS-7 cells transiently transfected with the human Y2 receptor as well as a promiscuous G protein, Gqi5 which ensures that the Y2 receptor couples through a Gq pathway leading to an increase in inositol phosphate turnover.
# Cells are washed twice in buffer, 20 mM HEPES, pH 7.4, supplemented with 140 mM NaCl, 5 mM KCl, 1 mM MgSO4, 1 mM CaCl2, 10 mM glucose, 0.05% (w/v) bovine serum; and are incubated in 0.5 ml buffer supplemented with 10 mM LiCl at 37 C for 30 min. After stimulation with various concentrations of peptide for 45 min at 37 C, cells are extracted with 10% ice-cold perchloric acid followed by incubation on ice for 30 min. The resulting supernatants are neutralized with KOH in HEPES buffer, and the generated [3H]-inositol phosphate are purified on Bio-Rad AG 1-X8 anion-exchange resin and counted in a beta counter. Determinations are made in duplicates. EC50 values were calculated using a standard pharmacological data handling software, Prism 3.0 (graphPad Sofware, San Diego, USA).
# Protocol as for the Y2 potency assay, except that human Y1-transformed COS-7 cells are used.
row,EC50 [µM],Compound
1,> 1,"H-APLEPVYPGDNATPEQMAQYAADLRRYINTITRQRY-NH2 [[Thr30, Ile31, Gln34]hPP]"
2,> 1,"H-APLEPVYPGDNATPEQMAQYAADLRRYINTLTRQRY-NH2 [[Thr30, Gln34]hPP]"
3,> 1,"H-LEPVYPGDNATPEQMAQYAADLRRYINMLTRQRY-NH2 [[Gln34]hPP3-36, reference compound]"
4,> 1,"H-PLEPVYPGDNATPEQMAQYAADLRRYINTITRQRY-NH2 [[Thr30, Ile31, Gln34]hPP2-36]"
5,> 1,"H-PLEPVYPGDNATPEQMAQYAADLRRYINTLTRQRY-NH2 [[Thr30, Gln34]hPP2-36]"

# Tested on: not listed separately
# Assay: in vivo
# Set-up: species or system cyno monkeys
# Conditions: cynomolgus monkey
# Description: PYY itself is know to be extremely emetic when administered peripherally, in fact PYY was discovered-for “the second time” -in 1989 as the biologically active entity in a chromatographic fraction of an intestinal extract causing dogs to vomit (Harding and McDonald 1989 Peptides 10: 21-24). […] It has also been reported that PYY3-36 can cause nausea when administered peripherally to human subjects ([…] press release 29th of June 2004). From a physiological point of view it appears logically that PYY-and its biologically active conversion product-which normally first is secreted in large amounts during a very large meal or when food is dumped into the lower intestine due to various surgical procedures, is able to cause emesis and vomiting to relieve the subject from a situation of overt overeating. […] This is surprising since [[…]]PP has a relatively high potency on the Y2 receptor for which PYY3-36 is totally selective. […] Apparently, the Y4 receptor activation-conceivably in the area postreama-prevents the emetic effect of the Y2 activation form the same compound. This property of a combined Y2-Y4 selective agonist is of great benefit for the treatment of obesity and associated conditions.
row,level at time molar [nM],Compound
1,12 to 13,CC[C@H](C)[C@H](NC(=O)[C@H](Cc1ccc(O)cc1)NC(=O)[C@H](CCCNC(=N)N)NC(=O)[C@H](CCCNC(=N)N)NC(=O)[C@H](CC(C)C)NC(=O)[C@H](CC(=O)O)NC(=O)[C@H](C)NC(=O)[C@H](C)NC(=O)[C@H](Cc1ccc(O)cc1)NC(=O)[C@H](CCC(N)=O)NC(=O)[C@H](C)NC(=O)[C@H](CCSC)NC(=O)[C@H](CCC(N)=O)NC(=O)[C@H](CCC(=O)O)NC(=O)[C@@H]1CCCN1C(=O)[C@@H](NC(=O)[C@H](C)NC(=O)[C@H](CC(N)=O)NC(=O)[C@H](CC(=O)O)NC(=O)CNC(=O)[C@@H]1CCCN1C(=O)[C@H](Cc1ccc(O)cc1)NC(=O)[C@@H](NC(=O)[C@@H]1CCCN1C(=O)[C@H](CCC(=O)O)NC(=O)[C@H](CC(C)C)NC(=O)[C@@H]1CCCN1C(=O)[C@H](C)N)C(C)C)[C@@H](C)O)C(=O)N[C@@H](CC(N)=O)C(=O)N[C@@H](CCSC)C(=O)N[C@@H](CC(C)C)C(=O)N[C@H](C(=O)N[C@@H](CCCNC(=N)N)C(=O)N[C@@H](CCC(N)=O)C(=O)N[C@@H](CCCNC(=N)N)C(=O)N[C@@H](Cc1ccc(O)cc1)C(N)=O)[C@@H](C)O [[Gln34]hPP]
